Reference: article PMC5226491, “Efficient therapeutic delivery by a novel cell-permeant peptide derived from KDM4A protein for antitumor and antifibrosis” (Oncotarget, 2016)

Assays:
[1] = system: primary cultured cells (mouse spleen lymphocytes, human peripheral blood lymphocytes, mouse primary fibroblast cells); assay: Uptake of FITC-labeled hPP10 in primary cultured cells; format: cell-based; settings: mouse spleen lymphocytes and hPBMCs with 5% DMSO treatment
Experimental: The internalization of FITC conjugated hPP10 into cultured cells was observed using fluorescence microscopy. All types of cells were plated in 24-well-plates (Greiner, Germany) and cultivated to semi-confluence in RPMI-1640 medium in a CO2 incubator for 24 h at 37°C. Cells were washed with PBS, followed by 5.0 μM FITC-labeled peptide or fusion protein incubation with serum-free medium for 1 h at 37°C, the medium was removed, the cells were further washed with PBS 3 times, and then imaged using fluorescence microscope (Nikon, Japan) with a band-pass filter.

Caski cells = format: cell-based, human
Experimental: (§1) Intracellular fluorescence intensity quantification was measured using Multimode Microplate Reader (Tecan 2000; Tecan, Mannedorf, Switzerland). The intracellular uptake of FITC-labeled peptide was performed as described previously. Briefly, after the incubation, cells were washed and then lysed by adding 300 μl lysing buffer (0.1 M NaOH) for 10 min, the cell lysates were harvested and centrifuged (14000 g for 5 min), the supernatant was used to measure the fluorescence intensity. The fluorescence of cellular uptake is expressed as fluorescence intensity per mg of total cellular protein. All experiments were repeated at least three times and always performed in triplicate.

different cell lines [2] = system: different cell lines
Experimental: Cells were seeded in 96-well plates at 24 h before treatment. […] MTT solution (5 mg/mL) was added into fresh serum medium for further 4 h incubation. DMSO was used to solubilize formazan, and the absorbance was measured using a Multiskan Spectrum plate reader (Thermo, USA).

different cell lines [3] = system: different cell lines; remark: listed apart in the source
Experimental: Membrane integrity was assessed by lactate dehydrogenase (LDH) leakage into the culture medium. […] Cell-free supernatant was obtained and transferred to another 96-well-plate; substrate mixture was added to each well for another 10 min enzymatic reaction. Absorbance was measured at 560/590 nm using a Multiskan Spectrum plate-reader (Thermo, USA).

different cell lines [4] = assay: Uptake of FITC-labeled hPP10 in different cell lines; format: cell-based; settings: for Effect of temperature on internalization: incubation at 4°C or 37°C, with or without DMSO
Experimental: as §1

Sequence	Permeation of primary cultured cells [1]	Fluorescence of cytosol compared with TAT-FITC (Caski cells)	Cytotoxicity, MTT assay (different cell lines [2])	Membrane disturbance, LDH release (different cell lines [3])	Permeation of cancerous or immortalized cell lines (different cell lines [4]; B16, ECV304, HepG2, T24, L929, HSC-T6, THP1, 5 μM FITC-labeled peptide, 1 h)	Duration of intracellular fluorescence (Caski cells)	Effect of heparin on cellular uptake (different cell lines [4]; co-incubated with 0.5 U/mL heparin, different cells)	Effect of serum on penetrating efficiency (different cell lines [4]; different cell lines, mean ± SD for 3 samples)	Effect of temperature on internalization (different cell lines [4])
KIPLPRFKLKCIFCKKRRKR [hPP10, human-derived penetrating peptide from KDM4A (aa 820–839)]	able to permeate into primary cultured cells	higher than TAT-FITC group	minimal cytotoxicity	low membrane disturbance	capable of permeating a wide variety of cancerous or immortalized cell lines	–	–	–	–
KIPLPRFKLKCIFCKKRRKR [hPP10-FITC, synthesized FITC-labeled hPP10 peptide]	–	–	–	–	–	long-lasting fluorescence than TAT-FITC	greatly decreased in the presence of heparin	decreased in the presence of serum	less energy-sensitive than that of TAT-FITC without DMSO treatment
YGRKKRRQ RRRK [TAT-FITC, FITC-labeled HIV-1 TAT peptide used for positive control, reference compound]	–	–	–	–	–	–	–	–	energy-dependent with or without DMSO treatment
